These are literature values, as cited in patent publication US11304900B1, “Transparent colloidal vitamin supplement blend” (Quicksilver Scientific, Inc., priority 2017, dated 2022).

Molecules are shown by their SMILES. Read-outs that look alike come from different tables or passages of the source.

Experiment in data set [1]: not given
This is another data set of the same source.

For data set [2] the following is noted: in vivo.

Consider `O=C1O[C@H]([C@@H](O)CO)C(O)=C1O` [Vitamin C, ascorbic acid], for which the “mean peak plasma level” value (IV administration of 50 g/day) is reported as 80 mg/dL. In addition, under “daily intake increased from 200 mg/day to 2,500 mg/day”, the “increase of plasma concentration” value was 25%. Besides, under “oral administration of pharmacological doses”, the “highest blood serum level observed” value is reported as 9.3 mg/dL. For the same compound, the plasma concentration is, setting by setting: (oral daily intake 200 mg/day) 1.2 mg/dL; (oral daily intake 2,500 mg/day) 1.5 mg/dL. For the same compound, in data set [1], the “blood serum concentration at which antiviral effect has been demonstrated” value is 10 to 15 mg/dL.
In the case of `[Mg+2]` [magnesium], the “change in serum levels” value in data set [2] (iv) is on record as “double or triple”. For the same compound, the “change in blood serum magnesium concentration” value in data set [2] (po) was “little or no change”.
